Test results published in patent US10842783B2, “Avibactam and carbapenems antibacterial agents” (THE JOHNS HOPKINS UNIVERSITY, priority 2017, dated 2020).
“Also recorded” adds a separate entry of the source. Like-named read-outs stand apart in the source and are kept apart here.

Tests used:
[1] = tested on: M. abscessus ATCC 19977; assay: Broth microdilution MIC of carbapenems with and without β-lactamase inhibitors, reference strain; assay type: cell-based, Mycobacterium abscessus; details: for MIC: Mycobacteroides abscessus; for Ability of the β-lactamase inhibitor to reduce MICs of carbapenems, in words: inhibitor at 4 μg/mL; for Minimum inhibitory concentration, 7H9 + avibactam / Minimum inhibitory concentration, CAMHB + avibactam: avibactam at fixed 4 μg/mL; for Minimum inhibitory concentration, 7H9 + sulbactam: sulbactam at fixed 4 μg/mL; for Minimum inhibitory concentration, 7H9 + tazobactam: tazobactam at fixed 4 μg/mL
Procedure: (§1) All strains were initially grown in 7H9 complete medium composed of Middlebrook 7H9 broth (Difco) supplemented with 0.5% glycerol, 10% oleic acid-albumin-dextrose-catalase and 0.05% Tween-80 at 37° C. with constant shaking. A standard broth microdilution method was used to determine MIC. Briefly, M. abscessus strains were grown as described above and these cultures, at exponential phase (A600 nm˜0.6-0.8), were used to inoculate 10^5 colony forming units (CFU) into each well of microtiter culture plates containing a carbapenem at two fold serial dilutions ranging from 256 to 0.25 μg/mL. An identical setup but with wells containing 4 μg/mL of avibactam was used to assess the effect of this agent on each carbapenem. Carbapenems studied were procured commercially from Sigma-Aldrich and include ertapenem, meropenem, imipenem, doripenem, biapenem, faropenem, tebipenem and panipenem. β-lactamase inhibitors sulbactam, tazobactam and avibactam were also procured from Sigma-Aldrich. In addition, to establish baseline antibacterial susceptibility for each strain we also determined MICs for drugs currently used to treat M. abscessus infections. They are linezolid, cefoxitin, kanamycin, ciprofloxacin, moxifloxacin, amikacin, tigecycline, imipenem, tobramycin, trimethoprim/sulfamethoxazole, and clarithromycin. M. abscessus growth was evaluated by visual inspection of pellets after 3 days of incubation (the exception being clarithromycin for which incubation was extended to 14 days) at 30° C. without shaking per CLSI guidelines. In addition to assessment in 7H9 complete medium, we also used cation adjusted Mueller-Hinton broth for MIC studies for the reference strain M. abscessus ATCC 19977. All experiments were repeated and the final data represent the average of two biological replicates.
We studied the utility of β-lactamase inhibitors sulbactam, tazobactam, and avibactam in restoring in vitro potencies of carbapenems against M. abscessus using the reference drug-susceptible strain ATCC 19977. We determined MICs of ertapenem, meropenem, imipenem, doripenem, biapenem, faropenem, tebipenem and panipenem alone or in the presence of the aforementioned […] β-lactamase inhibitors.

[2] = tested on: M. abscessus clinical strains; assay: Broth microdilution MIC of carbapenems with and without avibactam, twenty eight clinical isolates; assay type: cell-based, Mycobacterium abscessus; details: for Average reduction in MICs of the carbapenems in combination with avibactam: twenty eight clinical strains; for Average reduction in MICs of the carbapenems in combination with avibactam / Effect of avibactam on the MIC of the carbapenem, in words: avibactam 4 μg/mL; for Effect of avibactam on the MIC of the carbapenem, in words: clinical strains
Text: Twenty eight unique clinical isolates of M. abscessus were used in this study. These strains were obtained de-identified from the archive of the clinical microbiology laboratory of the Johns Hopkins University Hospital per institutional ethical guidelines. They were isolated over a 10 year period, from 2005-2015, from patients that were temporally and geographically unrelated. No two isolates are from the same patient. Those displaying a high level of resistance to antibacterials used for M. abscessus infection were selected for this study. All strains obtained prior to 2014 were identified to the M. abscessus complex level using a variety of methods including 16S rDNA sequencing in conjunction with selected biochemical testing such as sodium citrate. More recent isolates (those isolated after 2014) were identified using MALDI ToF mass spectrometry in which a Bruker MicroFlex LT (MicroFlex LT) mass spectrometer and Bruker Biotyper software and existing database (version 2.0, Bruker) were employed. Sub-speciation within the M. abscessus complex, which helps to distinguish between M. abscessus sensu stricto, M. massiliense, and M. bolletii, was not done as this is not per the current standard of care at the Johns Hopkins Clinical Mycobacteriology Laboratory. Distinguishing between M. abscessus sensu stricto and M. massiliense is most often performed to guide therapy since M. massiliense is known to have a non-funtional erm gene and is therefore susceptible to macrolides. However, due to the high number of macrolide resistant M. abscessus complex isolates recovered at Johns Hopkins, most patient isolates are subjected to drug susceptibility testing, making speciation within the complex of lesser importance. Thus, the proportion of each subspecies within the M. abscessus complex for the Johns Hopkins strain collection is not known. M. abscessus ATCC 19977 was included as a reference drug-sensitive strain.
as §1

[3] = in vivo; cited from earlier work
[4] = ATCC19977, 7H9 broth, drug alone, read-out: Minimum inhibitory concentration, 7H9 broth
[5] = ATCC19977, cation-adjusted Mueller-Hinton broth, drug alone, read-out: Minimum inhibitory concentration, CAMHB only
[6] = ATCC19977, carbapenem alone, single values given, read-out: MIC of carbapenems against the drug sensitive control strain
[7] = cation-adjusted Mueller-Hinton broth
[8] = with avibactam, against M. abscessus

Row | Compound | MIC [1, 4] [µg/mL] | MIC [1, 5] [µg/mL] | Ability of the β-lactamase inhibitor to reduce MICs of carbapenems, in words [1] | Average reduction in MICs of the carbapenems in combination with avibactam [2] [fold] | Minimum inhibitory concentration, 7H9 + avibactam ([1]; 7H9 broth) [µg/mL] | Minimum inhibitory concentration, 7H9 + sulbactam ([1]; 7H9 broth) [µg/mL] | Minimum inhibitory concentration, 7H9 + tazobactam ([1]; 7H9 broth) [µg/mL] | MIC [1, 6] [µg/mL] | Minimum inhibitory concentration, CAMHB + avibactam [1, 7] [µg/mL] | Effect of avibactam on the MIC of the carbapenem, in words [2] | Average peak plasma concentration [3] [µg/mL] | Half-life [3] [h] | MIC ([1]; ATCC19977, read-out: Minimum inhibitory concentration, 7H9 broth) [µg/mL] | Fold decrease of MIC by avibactam [2, 8] | MIC of carbapenem as reduced by avibactam [2, 8] [µg/mL]
1 | NC(=O)[C@@H]1CC[C@@H]2CN1C(=O)N2OS(=O)(=O)O [Avibactam, avibactam] | > 256 | > 256 | most active | – | – | – | – | – | – | – | – | – | – | – | –
2 | C[C@@H](O)[C@H]1C(=O)N2C(C(=O)[O-])=C(SC3Cn4cnc[n+]4C3)[C@H](C)[C@H]12 (some centres unmarked) [Biapenem, biapenem] | 8 to 16 | 16 to 32 | – | 5 | 2 to 4 | 4 to 8 | 8 to 16 | 16 | 8 to 16 | – | – | – | – | – | –
3 | C[C@@H](O)[C@H]1C(=O)N2C(C(=O)O)=C(S[C@@H]3CN[C@H](CNS(N)(=O)=O)C3)[C@H](C)[C@H]12 [Doripenem, doripenem] | 8 to 16 | 16 to 32 | – | 6 | 2 to 4 | 8 to 16 | 8 to 16 | 16 | 4 to 8 | – | – | – | – | – | –
4 | C[C@@H](O)[C@H]1C(=O)N2C(C(=O)O)=C(S[C@@H]3CN[C@H](C(=O)Nc4cccc(C(=O)O)c4)C3)[C@H](C)[C@H]12 [Ertapenem, ertapenem] | 64 to 128 | 128 to 256 | – | > 13 | 4 to 8 | >64 | 32 to 64 | 128 | 8 to 16 | levels that are therapeutically relevant; also recorded: levels achievable in the blood | ~150 | ~4 | – | – | –
5 | C[C@@H](O)[C@H]1C(=O)N2C(C(=O)O)=C([C@H]3CCCO3)S[C@H]12 [Faropenem, faropenem] | 32 to 64 | 64 to 128 | – | 3 | 8 to 16 | 16 to 32 | 32 to 64 | 64 | 16 to 32 | least effective | – | – | – | – | –
6 | C[C@@H](O)[C@H]1C(=O)N2C(C(=O)O)=C(SCCN=CN)C[C@H]12 [Imipenem, imipenem] | 4 to 8 | 8 to 16 | – | 2 | 2 to 4 | 4 to 8 | 2 to 4 | 8 | 4 to 8 | – | – | – | – | – | –
7 | C[C@@H](O)[C@H]1C(=O)N2C(C(=O)O)=C(S[C@@H]3CN[C@H](C(=O)N(C)C)C3)[C@H](C)[C@H]12 [Meropenem, meropenem] | 8 to 16 | 32 to 64 | – | 6 | 2 to 4 | 8 to 16 | 8 to 16 | 16 | 4 to 8 | – | – | – | – | – | –
8 | CC(=N)N1CC[C@H](SC2=C(C(=O)O)N3C(=O)[C@H]([C@@H](C)O)[C@H]3C2)C1 [Panipenem, panipenem] | 64 to 128 | 64 to 128 | – | 8 | 8 to 16 | 16 to 32 | 32 to 64 | 128 | 8 to 16 | levels that are therapeutically relevant; also recorded: levels achievable in the blood | ~22 | – | – | – | –
9 | CC1(C)[C@H](C(=O)O)N2C(=O)C[C@H]2S1(=O)=O [Sulbactam, sulbactam] | – | – | failed to reduce the MICs; also recorded: failed to observe significant reduction in MIC | – | – | – | – | – | – | – | – | – | > 64 | – | –
10 | C[C@]1(Cn2ccnn2)[C@H](C(=O)O)N2C(=O)C[C@H]2S1(=O)=O [Tazobactam, tazobactam] | > 64 | – | failed to reduce the MICs; also recorded: failed to observe significant reduction in MIC | – | – | – | – | – | – | – | – | – | – | – | –
11 | C[C@@H](O)[C@H]1C(=O)N2C(C(=O)O)=C(SC3CN(C4=NCCS4)C3)[C@H](C)[C@H]12 [Tebipenem, tebipenem] | 128 to 256 | 128 to 256 | – | > 38 | 4 to 8 | >64 | >64 | 256 | 8 to 16 | levels that are therapeutically relevant; also recorded: largest reduction in MIC | ~8 | 1 | – | 32-64 fold | 4 to 8
12 | O=C(O)[C@H]1/C(=C/CO)O[C@@H]2CC(=O)N21 [clavulanate] | – | – | failed to observe significant reduction in MIC | – | – | – | – | – | – | – | – | – | – | – | –
